Assay [1] relates to cerebral cortical mixed neuronal cells. Put plainly: NMDA excitotoxicity in cerebral cortical mixed neuronal cultures. It counts as cell-based, rat. To be noted: for NMDA-induced neuronal death: NMDA 25, 50 or 100 μM for 12 h, ELV (Na or Me) 200 nM or 500 nM added simultaneously. The source says:
Primary cultures of cortical neurons: Primary cultures of cortical and hippocampal neurons were harvested from 18-day-old embryos (E18) taken from timed-pregnant, two-month-old Sprague-Dawley (SD) rats (Charles River Lab., Wilmington, Mass.). Briefly, timed-pregnant SD rats were euthanized and embryos were collected in sterile conditions. Embryonic brains were dissected out by forceps on ice and placed in a petri dish containing ice-cold Hank's Balanced Salt Solution (HBSS) (GIBCO). Meninges were removed under a dissecting microscope and cortical tissues were chopped into small pieces with micro-spring scissors. These tissues were transferred to 15 ml tubes containing trypsin-EDTA (0.025% in HBSS) and DNase I. The tubes were incubated in 37° C. chamber for 15 mins and were agitated every 5 mins. After stopping the trypsinization with 5 ml 10% FBS, these tissues were triturated 15 times with a fire polished Pasteur pipet. Cell clumps were left to settle for 2 mins and the supernatant was transferred to a 15 ml Eppendorf tube. The supernatant was filtered through a 70 μm pore-sized filter (Corning cell strainer) and centrifuged for 5 mins at 1000 rpm. The cells were then resuspended in Neurobasal medium (GIBCO) containing 2% B27 (GIBCO) and 2% N2 (GIBCO) supplements, along with 0.5 mM glutamine, 50 U/ml penicillin/streptomycin.
Cells were counted using a Neubauer hemocytometer. 1×10^6 cells were seeded on poly-D-lysine-coated 12 well cell culture dish (CORNING) and cultured in incubator (37° C., 5% CO2). Culture medium was first replaced after 24 h, then half of the medium was replaced with fresh medium every three days. As a result, approximately, 90% purity of neurons was obtained as determined by class-III-β tubulin, GFAP and Hoechst 33258 staining. Cells were maintained in culture for about 2 weeks until they were exposed to uncompensated oxidative stress, OGD, or NMDA excitotoxicity.
After 90 mins of OGD exposure, cells were returned to the original medium (Neurobasal medium (GIBCO) containing 2% B27 (GIBCO) and 2% N2 (GIBCO) supplements, along with 0.5 mM glutamine, 50 U/ml penicillin/streptomycin) and placed in a normoxic chamber (37° C., 5% CO2) for 2 h. Then the medium was changed with medium containing either ELV-N32 or ELV-N34 [500 nM] and maintained in a normoxic chamber (37° C., 5% CO2) for 12 h, after which cells were sampled and assayed for cell viability using different methods as previously described (25-28). Cerebral cortical mixed neuronal cells or hippocampal cells in culture were exposed to either NMDA or uncompensated oxidative stress (UOS) for 12 h by addition of either NMDA (25 μM, 50 μM, or 100 μM) concentration or by the addition of TNFα (10 ng/mL) and H2O2 (50 μM, 100 μM, or 200 μM). Cell viability and neuroprotection in the presence of ELV-N32, ELV-N34, 32:6, or 34:6 were assayed after 12 h.
Hoechst staining and unbiased image analysis: Cells were washed with 1× Dulbecco's Phosphate Buffered Saline (DPBS) containing no calcium or magnesium (GIBCO) and fixed for 10 mins using ice-cold 4% paraformaldehyde (PFA) followed by 15 mins incubation in 100% methanol. Cells were washed with 1× Phosphate Buffered Saline (PBS) pH 7.4 (GIBCO) and incubated in PBS containing 20 μM Hoechst 33258 (Molecular Probes) for 20 mins. Cells were then washed 3 times with 1× PBS and stored in 1× PBS at 4° C. until they were imaged for microscopy.
One 4×4 tile mosaic was acquired from the center of each well using a Zeiss 510 Meta laser confocal microscope and LSM 510 Meta software. Images were imported into image analysis software ImageJ (National Institutes of Health, Bethesda, Md.) and batch processed using custom macros. An Otsu auto threshold was applied to each image of Hoechst-stained nuclei, and the area of each detected object was recorded. Objects with areas <10 μm^2 were excluded from analysis. To estimate percentage non-pyknotic nuclei, a size cutoff value was chosen above which objects were assumed to be non-pyknotic. […]

Assay [2] relates to mice sub-retinally injected with OAβ. Put plainly: Oligomeric Aβ (OAβ)-induced RPE senescence and retinal degeneration, sub-retinal injection. The class given is in vivo, mouse. To be noted: 200 ng co-injected with 10 μM OAβ, 2 μl sub-retinal. From the text:
As shown in FIGS. 14A-14C, elovanoids (ELV) counteract AR peptide-induced retinal pigment epithelial cell senescence progression. Aβ42, an end product of the amyloidogenic pathway, is a component of drusen in age-related macular degeneration (AMD), and of senile plaques in Alzheimer's disease (AD). To mimic the effect of OAβ in vivo, 6-month-old mice were used and sub-retinally injected with OAβ alone, OAβ+ELVs and ELVs alone. The no injection mice were used as negative control while the PBS injected mice were used as the sham. The injection volume was 2 μl containing of PBS, 10 μM of OAβ, 10 μM of OAβ+200 ng ELV-32, 200 ng ELV-32 alone, 10 μM of OAβ+200 ng ELV-34 or 200 ng ELV-34 alone. At day 3 after injection, mRNA from eyecup was isolated and analyzed the gene expression using q-PCR. Then, at day 7, the mice were subjected to Optical Coherence Tomography (OCT) analysis and then the eyes were enucleated and processed for histology, whole mount RPE staining, and western blotting (WB). OCT and histology uncovers that in OAβ induced retinal degeneration, the thickness of retina was thinner in OAβ injected group when compared to the controls as well as ELVs treatment groups.

For another assay, the system named is ARPE-19 cells under UOS. Put plainly: Western blot of pro-survival and pro-apoptotic proteins in ARPE-19 cells under UOS. The class given is cell-based, human. To be noted: for Bax protein / Bid protein / Bim protein: Western blot, UOS; for Prohibitin (type-1) expression (ELV): sodium salts and methyl ester forms, concentration-dependent, 100-200 nM; for effect of 15-LOX-1 inhibitor on VLC-PUFA-induced Iduna expression: FIG. 7D. On the procedure: (§1) ARPE19 cells at 75-80% confluence (72 h growth in DMEM/F12+10% FBS) in 6-well plates were serum-starved for 8 h before exposure. The serum-starved cells were treated with TNF-α (Sigma-Aldrich, St. Louis, Mo.) (10 ng/ml) and H2O2 (600 μM) to induce oxidative stress and challenged with increasing concentrations (50-500 nM) of VLC-PUFA (C32:6n3 and C34:6n3) simultaneously with oxidative stress for 16 h (apoptosis) and 6 h (Western-blot) before detection of apoptosis and harvesting for protein analysis. In some experiments, DHA at a concentration of 100 nM and 15-LOX-1 inhibitor PD146176 at a concentration of 1 μM was added to treat the RPE cells under stress. Cell extracts were made and protein concentrations adjusted by Bio-Rad (Hercules, Calif.) protein reagent and used for Western blot analysis.
Analysis of Proteins: Bcl-2 family proteins, SIRT1 and Proinhibitin (type-1), and Iduna proteins were analyze by Western blot analysis. In brief, 20-25 μg equivalents of each cell extracts were subject to electrophoresis on a 4-12% gel (Promega) at 125 V for 2 h. The proteins were transferred to nitrocellulose membrane by I-blot transfer apparatus. The membranes were subjected to treatment with primary antibodies specific for Bcl-2, Bcl-xL, Bax, Bid, Bim, SIRT1 and Prohibitin (type-1) (Santa Cruz Biotechnology) and Iduna antibody (Neuro-Mab Lab, UCLA, Los Angeles, Calif.) overnight at 4° C. and probed for 45 mins with secondary antibody, goat anti-mouse Ig:horseradish peroxidase, and horseradish peroxidase-conjugated anti-biotin antibody, and then proteins were evaluated by using an ECL kit (Amersham).
For orientation: In western blotting, separated proteins are transferred to a membrane and probed.

For another assay, the system named is primary human RPE cells. The assay can be described thus: UOS-induced cell death in primary human RPE cells (Hoechst staining). The class given is cell-based. The conditions noted are these: UOS with H2O2 (800 μM), 16 h; VLC-PUFAs 3 μM each, NPD1 200 nM; UOS alone 50% cell death. As for the experimental part: Exposure of RPE cells to UOS and VLC-PUFA: For cell viability assay experiments hRPE cells were treated concomitantly with NPD1 (200 nM), 32-6, 34-6 (3 μM each) fatty acids or both 32-6 and 34-6 simultaneously. The hRPE medium was supplemented with 3 μM of 32-6 and 34-6 for the entire duration of the experiment. 15 lox-1 inhibitor (10 μM) was added to the cells 1 hour prior the OS induction and kept throughout the experiment. Cells were fixed with 4% PFA and stained with Hoescht.
(§2) To assess cell death, hRPE and ARPE-19 cells were fixed with methanol for 15 mins, washed with 1× PBS then loaded with 2 μM Hoechst dissolved in a Locke's solution (Promega) and incubated for another 15 mins before imaging. Cells were then viewed by using a Zeiss LSM 510 confocal microscope under UV fluorescence. Images were recorded and cell apoptosis was assessed by using an automated unbiased method.
To test the efficacy of 32:6n3 and 34:6n3 VLC-PUFAs to modulate human RPE cell homeostasis and survival rates, human RPE cells undergoing UOS were incubated with both VLC-PUFAs (3 μM each) and NPD1 (200 nM) 16 h. The addition of H2O2 (800 μM) induced apoptosis (50% cell death).
hRPE cells, formerly serum deprived for 12 h, were incubated with the 15 lipoxygenase 1 (15-LOX-1) inhibitor (PD146176) (10 μM for 1 h), then bathed with 600 μM H2O2/TNF-α in conjunction with a mixture of 32:6n3 and 34:6n3 (3 μM each) for 16 h. The 15-LOX-1 inhibitor sensitizes cells; therefore, a lower concentration of H2O2 than in the cytoprotection experiment was used.

Another assay deals with ARPE-19 cells. Put plainly: UOS-induced apoptosis in ARPE-19 cells (Hoechst-positive pyknotic cells). To be noted: inhibitor 1 μM, RPE cells undergoing UOS. The class given is cell-based, human. On the procedure:
as §1, §2

For `CC/C=C\C[C@H](O)\C=C/C=C/C=C/[C@H](O)C/C=C\C/C=C\CCCCCCCCCCCCC(=O)O` [ELV-N32, (14Z,17Z,20R,21E,23E,25Z,27S,29Z)-20,27-dihydroxydo-triaconta-14,17,21,23,25,29-hexaenoic acid], in assay [1], the NMDA-induced neuronal death result was “compensated for”. Also, in assay [2], the “protection of RPE and retina from OAβ induced senescence” value is “protect RPE and retina”. Also, in the assay on ARPE-19 cells under UOS, the Bax protein entry is “decreased”, the Bid protein result was “decreased”, the Bim protein entry was “decreased” and the “Prohibitin (type-1) expression (ELV)” value is recorded as “upregulated”.
As for MK801 maleate [reference compound], the NMDA excitotoxicity result in assay [1] (10 μM antagonist) is recorded as “overcome”.
Consider `CC/C=C\C[C@H](O)\C=C/C=C/C=C/[C@H](O)C/C=C\C/C=C\CCC(=O)O` [NPD1, 10R,17S-dihydroxy-docosa-4Z,7Z,11E,13E,15Z,19Z-hexaenoic acid, reference compound], for which, in the assay on primary human RPE cells, the “cell death (apoptosis)” value is given as 11%.
As to `c1ccc2c(c1)SCc1c-2[nH]c2ccccc12` [PD146176, reference compound], in the assay on ARPE-19 cells, the “effect of 15-LOX-1 inhibitor on ELV-mediated inhibition of apoptosis” value is on record as “compensate for ELV-mediated inhibition of apoptosis”. In addition, in the assay on ARPE-19 cells under UOS (FIG. 7C), the “SIRT1 expression with VLC-PUFA in the presence of 15-LOX-1 inhibitor” value is given as “augmented”. The “effect of 15-LOX-1 inhibitor on VLC-PUFA-induced Iduna expression” value with ARPE-19 cells under UOS is recorded as “attenuates”; in the assay on ARPE-19 cells under UOS (listed as 15-LOX-1 inhibitor) it was “unaffected”. In the assay on ARPE-19 cells under UOS (inhibitor 1 μM), the “effect of 15-LOX-1 inhibitor on ELV-induced protein upregulation (Iduna)” value is recorded as “blocked these effects”.
As to `CC/C=C\C[C@H](O)\C=C/C=C/C=C/[C@H](O)C/C=C\C/C=C\CCCCCCCCCCCCCCC(=O)O` [ELV-N34, (16Z,19Z,22R,23E,25E,27Z, 29S,31Z)-22,29-dihydroxytetra-triaconta-16,19,23,25,27,31-hexaenoic acid], the NMDA-induced neuronal death entry in assay [1] is on record as “compensated for”. In addition, the “protection of RPE and retina from OAβ induced senescence” value in assay [2] was “protect RPE and retina”. For the same molecule, in the assay with ARPE-19 cells under UOS, the Bax protein entry is reported as “decreased”, the Bid protein entry is “decreased”, the Bim protein entry is given as “decreased” and the “Prohibitin (type-1) expression (ELV)” value was “upregulated”.

(Values after patent US20220226270A1, “VERY-LONG-CHAIN POLYUNSATURATED FATTY ACIDS, ELOVANOID HYDROXYLATED DERIVATIVES, AND METHODS OF USE” (Board of Supervisors of Louisiana State University and …, priority 2019, published 2022).)
